Source: patent US20220402862A1 (Intellia Therapeutics, Inc., priority 2019, published 2022)
Where “and” joins values, the source holds several entries; their conditions need not be identical. Identical values can stand only once.

Tests used:
Transthyretin (TTR) = test: Serum TTR ELISA in mice after LNP dosing; format: in vivo, CD-1 female mice; settings: guide G282 experiments; for Serum TTR % TSS: mouse serum TTR relative to TSS control; for Serum TTR: mouse serum, ELISA
Method in brief: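 Serum mouse TTR was quantified by ELISA at 10,000-fold dilution for 0.1 mg/kg and 10,000/2,500-fold for 0.3 mg/kg. Samples came from female CD-1 mice (6–10 weeks) killed 6 or 7 days after a single intravenous LNP dose, usually 0.1 mg/kg.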

[1] = RNA encapsulation efficiency of LNPs (Ribogreen fluorescence assay); format: physicochemical; settings: LNP, sg:mRNA 1:1, N/P about 6, amine lipid/DSPC/cholesterol/PEG-2k-DMG 50/9/38/3; Table 2, Experiments 2-20
Method in brief: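 Encapsulation efficiency is (Total RNA − Free RNA)/Total RNA. Free RNA was quantified by RiboGreen fluorescence (488/525 nm, ~10 min, RT, dark) in plain TE buffer; total RNA was quantified after LNP lysis with 0.2% Triton X-100, both against RNA standard curves.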

[2] = pKa measurement of unformulated amine lipid (fluorescence, method of Jayaraman et al.); format: physicochemical; settings: 100 μM in 0.1 M phosphate buffer, pH 2.0-12.0
Experimental: The pKa of each amine lipid was determined according to the method in Jayaraman, et al. (Angewandte Chemie, 2012) with the following adaptations. […] Lipid was diluted to 100 μM in 0.1 M phosphate buffer (Boston Bioproducts) where the pH ranged from 2.0-12.0. Fluorescence intensity was measured using excitation and emission wavelengths of 321 nm and 448 nm.

[3] = Dynamic light scattering of LNPs: Z-average diameter, number average diameter, PDI; format: physicochemical; settings: LNP, sg:mRNA 1:1, N/P about 6, 50/9/38/3; Table 2, Experiments 2-20
Method in brief: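 Values reported are the Z-average (intensity-weighted mean size), the number-average diameter and the PDI (spread of sizes, 0 = fully uniform). All three came from dynamic light scattering of LNP preparations after dilution in PBS.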

Compound | Serum TTR % TSS (Transthyretin (TTR)) [%] | Serum TTR (Transthyretin (TTR)) [µg/mL] | Encapsulation (%) [1] | pKa [2] | Number mean (nm) [3] | PDI [3] | Z-avg (nm) [3]
CCCCC/C=C\C/C=C\CCCCCCCC(=O)OCC(COC(=O)CCC(OCCCCCCCC)OCCCCCCCC)COC(=O)NC1CCN(CC)C1 (stereo not shown) [Compound 41, 3-((4,4-bis(octyloxy)butanoyl)oxy)-2-((((1-ethylpyrrolidin-3-yl)carbamoyl)oxy)methyl)propyl (9Z,12Z)-octadeca-9,12-dienoate] | 95 | 758 | 98% | 7.82 | 54.1 nm | 0.074 | 74.83 nm
CCCCC/C=C\C/C=C\CCCCCCCC(=O)OCC(COC(=O)CCC(OCCCCCCCC)OCCCCCCCC)COC(=O)NC1CCCN(C)C1 (stereo not shown) [Compound 42, 3-((4,4-bis(octyloxy)butanoyl)oxy)-2-((((1-methylpiperidin-3-yl)carbamoyl)oxy)methyl)propyl (9Z,12Z)-octadeca-9,12-dienoate] | 81 | 902 | 99% | 6.9 | 58.66 nm | 0.027 | 74.03 nm
CCCCC/C=C\C/C=C\CCCCCCCC(=O)OCC(COC(=O)CCC(OCCCCCCCC)OCCCCCCCC)COC(=O)NC(C)CN(CC)CC (stereo not shown) [Compound 44, 3-((4,4-bis(octyloxy)butanoyl)oxy)-2-((((1-(diethylamino)propan-2-yl)carbamoyl)oxy)methyl)propyl (9Z,12Z)-octadeca-9,12-dienoate] | 82 | 910 | 91% | 6.1 | 64.78 nm | 0.025 | 81.19 nm
CCCCC/C=C\C/C=C\CCCCCCCC(=O)OCC(COC(=O)CCC(OCCCCCCCC)OCCCCCCCC)COC(=O)NC(C)CN(C)C (stereo not shown) [Compound 45, 3-((4,4-bis(octyloxy)butanoyl)oxy)-2-((((1-(dimethylamino)propan-2-yl)carbamoyl)oxy)methyl)propyl (9Z,12Z)-octadeca-9,12-dienoate] | 98 | 1096 | 98% | 7.3 | 69.23 nm | 0.007 | 82.93 nm
CCCCC/C=C\C/C=C\CCCCCCCC(=O)OCC(COC(=O)CCC(OCCCCCCCC)OCCCCCCCC)COC(=O)N1CCN(C)CC1 (stereo not shown) [Compound 47, 3-((4,4-bis(octyloxy)butanoyl)oxy)-2-((((9Z,12Z)-octadeca-9,12-dienoyl)oxy)methyl)propyl 4-methylpiperazine-1-carboxylate] | 96 | 1075 | 97% | 5.9 | 40.95 nm | 0.086 | 58.93 nm
CCCCC/C=C\C/C=C\CCCCCCCC(=O)OCC(COC(=O)CCC(OCCCCCCCC)OCCCCCCCC)COC(=O)N1CCN(CC)CC1 (stereo not shown) [Compound 48, 3-((4,4-bis(octyloxy)butanoyl)oxy)-2-((((9Z,12Z)-octadeca-9,12-dienoyl)oxy)methyl)propyl 4-ethylpiperazine-1-carboxylate] | 82 | 915 | 97% | 5.3 | 45.32 nm | 0.085 | 64.68 nm
CCCCC/C=C\C/C=C\CCCCCCCC(=O)OCC(COC(=O)CCC(OCCCCCCCC)OCCCCCCCC)COC(=O)OCC1CCN(CC)C1 (stereo not shown) [Compound 51, 3-((4,4-bis(octyloxy)butanoyl)oxy)-2-(((((1-ethylpyrrolidin-3-yl)methoxy)carbonyl)oxy)methyl)propyl (9Z,12Z)-octadeca-9,12-dienoate] | 76 | 843 | 98% | 7.3 | 72.23 nm | 0.018 | 86.15 nm
CCCCC/C=C\C/C=C\CCCCCCCC(=O)OCC(COC(=O)CCC(OCCCCCCCC)OCCCCCCCC)COC(=O)OCC1(C)CCCN(CC)C1 (stereo not shown) [Compound 52, 3-((4,4-bis(octyloxy)butanoyl)oxy)-2-(((((1-ethyl-3-methylpiperidin-3-yl)methoxy)carbonyl)oxy)methyl)propyl (9Z,12Z)-octadeca-9,12-dienoate] | 84 | 935 | 99% | 7.8 | 69.4 nm | 0.032 | 86.72 nm
CCCCCC/C=C\COC(=O)CCCCCC(=O)OCC(COC(=O)CCC(OCCCCCCCC)OCCCCCCCC)COC(=O)OCCCN(CC)CC (stereo not shown) [Compound 55, (Z)-1-(3-((4,4-bis(octyloxy)butanoyl)oxy)-2-((((3-(diethylamino)propoxy)carbonyl)oxy)methyl)propyl) 7-(non-2-en-1-yl) heptanedioate] | 51 | 442 | 96% and 92% | 6.84 | 79.46 nm and 90.16 nm | 0.048 and 0.039 | 101 nm and 113.2 nm
CCCCCC/C=C\COC(=O)CCCC(=O)OCC(COC(=O)CCC(OCCCCCCCC)OCCCCCCCC)COC(=O)OCCCN(CC)CC (stereo not shown) [Compound 56, (Z)-3-((4,4-bis(octyloxy)butanoyl)oxy)-2-((((3-(diethylamino)propoxy)carbonyl)oxy)methyl)propyl non-2-en-1-yl glutarate] | 66 | 576 | 96% | 6.85 | 81.44 nm | 0.067 | 105.2 nm
CCCCCCCCCCOC(=O)CCCCCCCC(=O)OCC(COC(=O)CCC(OCCCCCCCC)OCCCCCCCC)COC(=O)OCC1CCCN(C)C1 (stereo not shown) [Compound 71, 1-(3-((4,4-bis(octyloxy)butanoyl)oxy)-2-(((((1-methylpiperidin-3-yl)methoxy)carbonyl)oxy)methyl)propyl) 9-decyl nonanedioate] | 50 | 462 | 99% | 6.44 | 76.95 nm | 0.035 | 95.57 nm
CCCCCCCCCCOC(=O)CCCCCCCC(=O)OCC(COC(=O)CCC(OCCCCCCCC)OCCCCCCCC)COC(=O)OCC1CCCN(CC)C1 (stereo not shown) [Compound 72, 1-(3-((4,4-bis(octyloxy)butanoyl)oxy)-2-(((((1-ethylpiperidin-3-yl)methoxy)carbonyl)oxy)methyl)propyl) 9-decyl nonanedioate] | 52 | 479 | 99% | 6.07 | 75.22 nm | 0.002 | 91.65 nm
CCCCCCCCCCOC(=O)CCCCCCCC(=O)OCC(COC(=O)CCC(OCCCCCCCC)OCCCCCCCC)COC(=O)NCCN(CC)CC (stereo not shown) [Compound 73, 1-(3-((4,4-bis(octyloxy)butanoyl)oxy)-2-((((2-(diethylamino)ethyl)carbamoyl)oxy)methyl)propyl) 9-decyl nonanedioate] | 60 | 550 | 97% | 6.64 | 94.5 nm | 0.008 | 110.6 nm
